The values that follow come from patent publication US11596668B2, “Tissue repair” (THE UNIVERSITY OF SUSSEX, priority 2017, dated 2023).

Assay [1] deals with rat aortic smooth muscle cells. Kind of assay: Proliferation assay, smooth muscle cells. The class given is cell-based. To be noted: 0-200 μM, 24 h. How it is done:
(§1) Proliferation assay: Proliferation of rat aortic endothelial cells (RAECs) and rat aortic smooth muscle cells (isolated from rats at animal unit at Sussex University) was evaluated using Trypan Blue exclusion test. Cells were seeded in 96 well plates at a seeding density of 1×10^4 cells/mL (0.15 mL/well). After 24 h, cells where treated with or without different concentrations of 2 HIF-1 inducers; DMOG and BIQ (0-200 μM). After another 24 hours, Trypan Blue was added and the cells that were stained (dead) and unstained (live) were counted. Results were expressed as number of cells/mL.

Assay [2] concerns rat aortic endothelial cells (RAECs). Kind of assay: Proliferation assay, endothelial cells. The class given is cell-based. To be noted: 24 h; for proliferation of rat aortic endothelial cells: 100 μM (0.1 mM); for optimum concentration for enhancing proliferation of rat aortic endothelial cells: tested 0-200 μM. How it is done: as §1
Assay [3] relates to human keratinocytes (HaCaT). Kind of assay: Scratch assay, skin injury model, keratinocytes. Type of assay: cell-based. To be noted: agent alone (DMOG 100 μM or EPO 1 ng/ml), 3% serum, 21% oxygen, vs untreated cells. On the procedure: (§2) An in vitro injury model using cells relevant to wound injury were used. Two different cell lines; human keratinocytes (HaCaT) and human fibroblasts were used as skin injury models.
(§3) Scratch assay: As described in example 3, the reparative effect of EPO (1 ng/mL) and DMOG (100 uM) were tested alone or in combination on HaCaT and fibroblasts incubated in cell culture medium (Dulbeccos cell culture medium) containing 3% serum in 21% oxygen for 24 h.

Assay [4] has as its system HIF-1. The assay can be described thus: HIF-1 protein levels in cell lysates by ELISA. Type of assay: cell-based, rat. To be noted: 100 μM, 18 h, 21% O2; reaches level similar to cells at 1% oxygen. How it is done: (§4) Cell culture: Rat aortic endothelial cells (RAECs) were seeded into 24-well plates and cultured until ˜80% confluent after which they were incubated with or without DMOG for 18 h at normal oxygen levels (21% O2). Cells incubated at 1% O2 where used as a positive control for HIF-1.
Enzyme linked immunosorbent assay (ELISA): HIF-1 protein levels were measured using ELISA. Treated cells were lysed in 80 μL lysis buffer (25 mmol/L Tris HCl pH 7. 6, 0.1% SDS, deoxycholate, 1% NP40, 0.5 mol/L EDTA, 40 mmol/L EGTA and protease inhibitors). Lysates were then centrifuged at 11,000 g for 15 min at 4° C. and the supernatant was collected. Protein concentrations were quantified using a BCA reagent kit (Pierce Biotechnology). HIF was measured using an ELISA kit (R&D systems and biotechne, UK) and expressed as pg/mg protein.
Similar to the methods described in example 2, HIF-1 protein expression and VEGF gene expression were quantitatively measured in vitro using ELISA and real time qPCR respectively using different the different HIF-1 inducers at different concentrations (0-500 uM).

In another assay the test system is rat carotid artery. The assay can be described thus: Balloon catheter injury (angioplasty) model, endothelial regrowth by Evan's blue staining. To be noted: DMOG 5 mg/Kg alone, local hydrogel, 5 days after injury. Type of assay: in vivo, Sprague Dawley rats. The source says: (§5) Angioplasty model: Balloon catheter injury (angioplasty) was the model used as an in vivo injury model using Sprague Dawley rats (450 g). Animals were anesthetized using 2% isoflurane where the rats were placed in a supine position. The right carotid artery was exposed and a (2F Fogarty catheter) was used to cause injury. The catheter was inserted into the common carotid artery via the external carotid to cause complete removal of the vascular endothelium from the common carotid artery down to its junction with the aortic arch. DMOG (5 mg/Kg) and EPO (100 ug/Kg) were administered either alone or in combination in the form of a hydrogel (30% w/v pluronic F127 gel) and applied to the artery after injury. Endothelial regrowth was then assessed using Evan's blue staining (injected IV in the tail vein 30 min before culling the animal) 0 and 5 days after injury to assess the area of de-endothelialised surface; re-endothelialised regions remain unstained. Images of stained arteries were quantified using Image J software.

Assay [5] relates to vascular endothelial growth factor (VEGF). The assay can be described thus: VEGF gene expression in carotid artery by qPCR after local application. The class given is in vivo, Sprague Dawley rats. The following applies: 24 h. How it is done:
(§6) Male animal study: Sprague Dawley rats (450 g) were used in this study. Animals were anesthetized using 2% isoflurane where the rats were placed in a supine position. The right carotid artery was exposed and DMOG was applied locally at different concentrations (0-7.5 mg/Kg) on the artery using pluronic gel (30% w/w). 3 rats were used in each concentration group.
Real time qPCR: RNA was extracted and purified from the frozen artery sections using TRIzol (Invitrogen, Life Technologies). RNA quality and concentrations were determined using a NanoDrop ND-1000 (NanoDrop Technologies). Reverse transcription and real-time quantitative PCR (qPCR) were carried out on RNA samples for VEGF and β2-microglobulin as described in example 2.

Another assay has as its system human fibroblasts. Kind of assay: Scratch assay, skin injury model, fibroblasts. The class given is cell-based. The following applies: agent alone (DMOG 100 μM or EPO 1 ng/ml), 3% serum, 21% oxygen, vs untreated cells. How it is done:
as §2, §3

The test system of assay [6] is vascular endothelial growth factor (VEGF). The assay can be described thus: VEGF gene expression by real time qPCR in RAECs. The class given is cell-based, rat. The following applies: 100 μM, 18 h, 21% O2; reaches level similar to cells at 1% oxygen. How it is done: as §4
Real time qPCR: The gene expression of vascular endothelial growth factor (VEGF), a HIF-1 target gene, was analysed by quantitative polymerase chain reaction (qPCR). Cells were lysed using TRIzol (Invitrogen, Life Technologies) and RNA was then extracted and purified. RNA quality and concentration were determined using a NanoDrop ND-1000 (NanoDrop Technologies). Reverse transcription and real-time quantitative PCR (qPCR) were carried out on RNA samples for VEGF and β2-microglobulin (a housekeeping gene not affected by change in oxygen levels), using TaqMan gene expression assays (Applied Biosystems/Life Technologies). For gene expression quantification, the comparative threshold cycle (ΔΔCT) method was used following manufacturer's guide-lines. Results were normalized to β2-microglobulin expression and expressed as arbitrary units using one of the normoxic untreated samples as a calibrator. […]

Assay [7] deals with HIF-1. The assay can be described thus: HIF-1 in plasma by ELISA after local application on carotid artery. The class given is in vivo, Sprague Dawley rats. The following applies: 24 h. How it is done:
as §6
ELISA: After 24 h, blood was taken from the rat's tail in tubes containing EDTA as an anti-coagulant. Blood was kept on ice and centrifuged to separate the plasma which was immediately treated with a protease inhibitor. HIF-1 was quantified in the collected plasma using the ELISA assay as described in example 2. After 24 h, treated animals were culled and both the right (treated) and left (untreated) carotid arteries were isolated and snap frozen for further analysis.

The subject of assay [8] is HIF-1. Kind of assay: HIF-1 in plasma by ELISA post balloon injury. The following applies: DMOG 5 mg/Kg local hydrogel, 24 h post injury. The class given is in vivo, Sprague Dawley rats.
Description: as §5
ELISA: Blood was collected from venous tail at 0, 1 and 5 days post injury. Plasma was separated and used for quantitative measurement of HIF-1 using ELISA method as described earlier.

Assay [9] concerns rat aortic endothelial cells (RAECs). The assay can be described thus: Scratch assay (in vitro injury model), wound closure. The class given is cell-based. The following applies: HIF-1 inducer 100 μM alone, 21% oxygen, 5% serum, vs untreated cells. On the procedure:
Scratch assay: This assay was used as an in vitro model of injury in rat aortic endothelial cells (RAECs). The effect of EPO on wound closure was investigated in either 21% or 1% O2. A reproducible scratch was produced in the endothelial monolayer and thereafter, either EPO (1 ng/mL) or saline (control) was added to the cells (in rat endothelial growth medium containing 5% serum) and subsequently incubated in 21% or 1% O2 for 24 hours. The defined area of the scratch was photographed under an inverted microscope (Olympus CKX41; Olympus Corporation, Tokyo, Japan) at lox magnification using a Micropix 5 megapixel colour complementary metal-oxide semiconductor digital camera (Olympus Cooperation). The position of the wound image was standardized each time against a horizontal line drawn on the base of the plate passing through the centre of each well. The scratch area was quantified using ImageJ software (National institutes of Health, Bethesda, Md., USA).
Scratch assay: Scratch assay was used as described in example 1. Cells where treated with DMOG (100 μM) and/or EPO (at 1 ng/mL). Cells incubated with medium containing 10% serum where used as positive control to reflect the maximum wound closure the cells could attain after 24 h. […]

Setting [10] is: 0-7.5 mg/Kg applied locally on carotid artery in pluronic gel.
[11] abbreviates: local application on carotid artery.

Consider `O=C(O)CNC(=O)c1nc(Cl)c2ccccc2c1O` [BIQ, N-[(1-Chloro-4-hydroxy-3-isoquinolinyl)carbonyl]glycine], for which the “proliferation of smooth muscle cells” value in assay [1] is recorded as “no effect”. In [2], the “proliferation of rat aortic endothelial cells” value is reported as “enhanced” and the “optimum concentration for enhancing proliferation of rat aortic endothelial cells” value was found to be 100 µM.

Turning to `COC(=O)CNC(=O)C(=O)OC` [DMOG, dimethyloxalylglycine], the “% wound closure after 24 h” value in assay [3] is “no significant different”. For the same compound, the “HIF levels in cell lysates” value in the assay with HIF-1 [4] is recorded as “increase”. In addition, the “repair of the endothelial lining of rat carotid artery” value in the assay with rat carotid artery is on record as “significant effect”. For the same compound, the “proliferation of smooth muscle cells” value in assay [1] is recorded as “no effect”. The “gene expression of VEGF in carotid artery” value in assay [5] (setting [10]) is listed as “concentration dependent effect”. Further, in [5] (setting [11]), the “optimal dose to cause an increase in VEGF” value stood at 5 mg/kg. The “% wound closure after 24 h” value in the assay on human fibroblasts was “no significant different”. The “gene expression of VEGF” value in assay [6] is listed as “increase”. Further, the “HIF levels in plasma” value in the assay with HIF-1 [7] (setting [10]) is on record as “concentration dependent effect”. The “optimal dose to cause an increase in HIF-1” value in the assay on HIF-1 [7] (setting [11]) turned out to be 5 mg/kg. In the assay on HIF-1 [8], the “HIF-1 levels in rat plasma” value is “significantly increased”. Moreover, in assay [2], the “proliferation of rat aortic endothelial cells” value is reported as “enhanced” and the “optimum concentration for enhancing proliferation of rat aortic endothelial cells” value worked out at 100 µM.

Consider `O=C(O)CNC(=O)c1c(O)c2ccccc2n(Cc2ccccc2)c1=O` [IOX, N-[[1,2-Dihydro-4-hydroxy-2-oxo-1-(phenylmethyl)-3-quinolinyl]carbonyl]glycine], for which, in [9], the “% wound closure after 24 h” value is “no change”.
